Test results from BindingDB's records for doi:10.1016/0922-4106(95)90014-4 (University of Cagliari, 1995).
Values joined by “and” are separate entries in the source; they are usually repeats but may differ in a detail not shown here. Identical values can stand only once.

Target: Gamma-aminobutyric acid receptor subunit alpha-1 (Rattus norvegicus, UniProt P62813)
Sequence (P62813 whole entry): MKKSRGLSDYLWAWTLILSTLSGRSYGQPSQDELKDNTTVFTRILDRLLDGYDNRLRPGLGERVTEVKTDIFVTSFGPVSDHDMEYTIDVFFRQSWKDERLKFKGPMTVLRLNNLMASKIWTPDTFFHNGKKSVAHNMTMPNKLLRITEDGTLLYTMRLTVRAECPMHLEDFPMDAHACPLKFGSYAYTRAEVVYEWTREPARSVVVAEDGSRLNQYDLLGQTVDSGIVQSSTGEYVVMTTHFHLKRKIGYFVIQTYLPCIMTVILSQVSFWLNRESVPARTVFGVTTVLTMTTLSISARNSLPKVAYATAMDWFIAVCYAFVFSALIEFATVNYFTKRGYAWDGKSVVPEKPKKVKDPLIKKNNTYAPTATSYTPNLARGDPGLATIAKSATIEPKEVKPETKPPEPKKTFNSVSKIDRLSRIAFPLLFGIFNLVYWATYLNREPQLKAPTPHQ

For `Cc1nnc2ccc(-c3cccc(C(F)(F)F)c3)nn12`, which Ki is on record?
The Ki was 1310 nM.

How did the Ki turn out when `CN1C(=O)CN=C(c2ccccc2F)c2cc([N+](=O)[O-])ccc21` [Flunitrazepam] was run?
Its Ki is 1.37 nM and 1.52 nM.
